Data as given in ChEMBL document CHEMBL4808236, “New phorbol ester derivatives as potent anti-HIV agents” (Bioorg Med Chem Lett, 2021).

Columns and labels:
[1] = system: MRC5; experiment: Cytotoxicity against human MRC5 cells assessed as inhibition of cell viability; format: cell-based
[2] = system: MCF7; experiment: Antiproliferative activity against human MCF7 cells assessed as reduction in cell viability measured after 72 hrs by SRB assay; format: functional, cell-based; conditions: MCF7, 72 h
[3] = system: A549; experiment: Antiproliferative activity against human A549 cells assessed as reduction in cell viability measured after 72 hrs by SRB assay; conditions: A549, 72 h
[4] = Selectivity index, ratio of CC75 for cytotoxicity against human MT4 cells to IC50 for antiviral activity against HIV-1 NL4-3 infected in human MT4 cells; format: toxicity, cell-based; conditions: read-out: Selectivity Index
[5] = system: MDA-MB-231; experiment: Antiproliferative activity against human MDA-MB-231 cells assessed as reduction in cell viability measured after 72 hrs by SRB assay; format: functional, cell-based; conditions: MDA-MB-231, 72 h
[6] = system: MT4; experiment: Cytotoxicity against human MT4 cells assessed as reduction in cell viability by CellTiter-Glo luminescence assay; format: cell-based
[7] = system: KB; experiment: Antiproliferative activity against human KB cells assessed as reduction in cell viability measured after 72 hrs by SRB assay; format: functional, cell-based
[8] = system: Human immunodeficiency virus 1; experiment: Antiviral activity against HIV-1 NL4-3 infected in human MT4 cells assessed as reduction in p24 production treated at 48 hrs post-infection and measured on day 4 post-viral infection by ELISA; format: functional, organism-based; conditions: Human immunodeficiency virus 1, NL4-3, MT4
[9] = Antiproliferative activity against human KB-VIN cells assessed as reduction in cell viability after 72 hrs by SRB assay; format: functional, cell-based; conditions: KBVIN

| SMILES | IC50 [2] | IC50 [3] | IC50 [5] | IC50 [7] | IC50 [8] | IC50 [1] | selectivity ratio [4] | CC75 [6] | IC50 [9] |
| --- | --- | --- | --- | --- | --- | --- | --- | --- | --- |
| CCCCCCCCCCCCCCCCCCCC(=O)O[C@]12C([C@@H]3C=C(CO)C[C@]4(O)C(=O)C(C)=C[C@H]4[C@@]3(O)[C@H](C)[C@H]1O)C2(C)C (single isomer, unassigned) | > 10 µM | 0.08 µM | 0.21 µM | > 40 µM | 0.0135 µM |  | > 350 | > 5 µM | > 40 µM |
| CCCC(=O)O[C@]12C([C@@H]3C=C(CO)C[C@]4(O)C(=O)C(C)=C[C@H]4[C@@]3(O)[C@H](C)[C@H]1OC(=O)/C=C/c1ccc(O)c(OC)c1)C2(C)C (single isomer, unassigned) | > 10 µM | > 10 µM | > 10 µM | > 10 µM | 0.0872 µM |  | > 50 | > 5 µM | > 10 µM |
| CCCC(=O)O[C@]12C([C@@H]3C=C(CO)C[C@]4(O)C(=O)C(C)=C[C@H]4[C@@]3(O)[C@H](C)[C@H]1OC(=O)/C=C/c1ccccc1)C2(C)C (single isomer, unassigned) | > 10 µM | > 10 µM | > 10 µM | > 10 µM | 0.0009 µM | 8.71 µM | > 5000 | > 5 µM | > 10 µM |

Continued, in another order:

| IC50 [2] | IC50 [3] | IC50 [5] | IC50 [7] | IC50 [8] | SMILES | IC50 [1] | selectivity ratio [4] | CC75 [6] | IC50 [9] |
| --- | --- | --- | --- | --- | --- | --- | --- | --- | --- |
| 10.5 µM | > 10 µM | > 10 µM | 8.31 µM | 0.00049 µM | CC1=C[C@H]2[C@@]3(O)[C@H](C)[C@@H](OC(=O)CCc4ccccc4)[C@]4(OC(=O)CCc5ccccc5)[C@H]([C@@H]3C=C(CO)C[C@]2(O)C1=O)C4(C)C | 11.4 µM | > 10000 | > 5 µM | > 10 µM |
| 6.85 µM | 4.7 µM | 8.29 µM | 6.45 µM | 0.00921 µM | CC1=C[C@H]2[C@@]3(O)[C@H](C)[C@@H](OC(=O)/C=C/c4ccccc4)[C@]4(OC(=O)/C=C/c5ccccc5)[C@H]([C@@H]3C=C(CO)C[C@]2(O)C1=O)C4(C)C | 36.2 µM | > 500 | > 5 µM | 6.82 µM |
| > 10 µM | > 10 µM | > 10 µM | > 10 µM | 0.00075 µM | CC(=O)O[C@@]12[C@H](OC(=O)/C=C/c3ccc(Cl)cc3)[C@@H](C)[C@@]3(O)[C@@H](C=C(CO)C[C@]4(O)C(=O)C(C)=C[C@@H]34)[C@@H]1C2(C)C | 7.13 µM | > 5000 | > 5 µM | > 10 µM |
